According to ChEMBL document CHEMBL1201862, “PubChem BioAssay data set” (2004):
Activity calls are given as the source filed them.

What was measured:
[1] = molecular target: Fructose-bisphosphate aldolase (Mycobacterium tuberculosis, UniProt P9WQA3); test: Fluorescence-based biochemical high throughput dose response assay for inhibitors of the fructose-bisphosphate aldolase (FBA) of M. tuberculosis.; format: functional
[2] = molecular target: ADP-ribosylation factor GTPase-activating protein 1 (Rattus norvegicus, UniProt Q62848); test: Fluorescence polarization-based biochemical high throughput dose response screening assay to identify inhibitors of ADP-ribosylation factor GTPase activating protein 1 (ARFGAP1).; format: functional
[3] = molecular target: Arf-GAP with SH3 domain, ANK repeat and PH domain-containing protein 1 (Homo sapiens, UniProt Q9ULH1); format: functional;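 note: biochemical fluorescence polarization dose–response screen measuring inhibition of ASAP1; ASAP1 GAP domain stimulating GTP hydrolysis by truncated human ARF1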
[4] = Trypanosoma cruzi growth suppression in host cells – NIH3T3 host cells, beta-gal luminescence, confirmation (AID 2044); format: functional, cell-based;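 note: intracellular parasites grown in NIH/3T3 mouse fibroblasts as host cells; luminescent beta-galactosidase reporter signal from transgenic T. cruzi replicating inside host cells; inhibitors lower the luminescence signal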
[5] = NIH3T3 cell viability loss – ATP luminescence, mouse fibroblasts, counter-screen, dose response (AID 2010); format: functional, cell-based;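 note: cells exposed to compound for about 90 hours before reading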
[6] = molecular target: T1, Short transient receptor potential channel 4 (Mus musculus, UniProt Q9QUQ5); test: block of DAMGO-driven TRPC4 calcium entry – cell-based, HEK293 TRPC4/mu-opioid, Fluo-4 calcium, dose response (AID 434942); format: functional;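 note: potency of inhibitors blocking the TRPC4 calcium response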
T1 sequence (Q9QUQ5 whole entry): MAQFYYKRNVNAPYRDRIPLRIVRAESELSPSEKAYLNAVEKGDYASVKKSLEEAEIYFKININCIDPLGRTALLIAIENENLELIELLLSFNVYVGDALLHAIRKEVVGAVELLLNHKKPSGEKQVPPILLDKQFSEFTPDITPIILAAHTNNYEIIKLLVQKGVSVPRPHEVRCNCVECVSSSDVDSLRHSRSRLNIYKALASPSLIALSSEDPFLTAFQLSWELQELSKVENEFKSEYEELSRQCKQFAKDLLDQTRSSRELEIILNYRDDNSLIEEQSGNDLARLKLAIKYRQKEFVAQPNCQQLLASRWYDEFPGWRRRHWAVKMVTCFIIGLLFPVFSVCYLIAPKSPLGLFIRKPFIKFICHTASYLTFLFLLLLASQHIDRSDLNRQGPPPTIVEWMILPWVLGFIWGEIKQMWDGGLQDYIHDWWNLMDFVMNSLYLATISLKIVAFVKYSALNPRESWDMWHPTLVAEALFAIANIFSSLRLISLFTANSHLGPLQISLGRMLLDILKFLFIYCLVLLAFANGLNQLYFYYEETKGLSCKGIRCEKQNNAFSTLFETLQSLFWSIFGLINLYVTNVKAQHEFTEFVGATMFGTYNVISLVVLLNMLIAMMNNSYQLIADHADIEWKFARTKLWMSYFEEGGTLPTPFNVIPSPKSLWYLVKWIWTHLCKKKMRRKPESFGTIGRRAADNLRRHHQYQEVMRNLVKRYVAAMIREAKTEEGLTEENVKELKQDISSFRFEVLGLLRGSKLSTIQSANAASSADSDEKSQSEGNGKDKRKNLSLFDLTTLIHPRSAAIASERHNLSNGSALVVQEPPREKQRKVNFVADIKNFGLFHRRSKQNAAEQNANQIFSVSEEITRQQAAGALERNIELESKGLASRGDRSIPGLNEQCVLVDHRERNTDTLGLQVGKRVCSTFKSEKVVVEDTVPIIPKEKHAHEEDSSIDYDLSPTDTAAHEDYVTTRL

[7] = molecular target: T2, DNA repair and recombination protein RAD54-like (Homo sapiens, UniProt Q92698); test: RAD54 Holliday junction migration blockers – biochemical, fluorescence, cherry-picked samples, dose series, confirmation (AID 651657); format: functional
T2 sequence (Q92698 whole entry): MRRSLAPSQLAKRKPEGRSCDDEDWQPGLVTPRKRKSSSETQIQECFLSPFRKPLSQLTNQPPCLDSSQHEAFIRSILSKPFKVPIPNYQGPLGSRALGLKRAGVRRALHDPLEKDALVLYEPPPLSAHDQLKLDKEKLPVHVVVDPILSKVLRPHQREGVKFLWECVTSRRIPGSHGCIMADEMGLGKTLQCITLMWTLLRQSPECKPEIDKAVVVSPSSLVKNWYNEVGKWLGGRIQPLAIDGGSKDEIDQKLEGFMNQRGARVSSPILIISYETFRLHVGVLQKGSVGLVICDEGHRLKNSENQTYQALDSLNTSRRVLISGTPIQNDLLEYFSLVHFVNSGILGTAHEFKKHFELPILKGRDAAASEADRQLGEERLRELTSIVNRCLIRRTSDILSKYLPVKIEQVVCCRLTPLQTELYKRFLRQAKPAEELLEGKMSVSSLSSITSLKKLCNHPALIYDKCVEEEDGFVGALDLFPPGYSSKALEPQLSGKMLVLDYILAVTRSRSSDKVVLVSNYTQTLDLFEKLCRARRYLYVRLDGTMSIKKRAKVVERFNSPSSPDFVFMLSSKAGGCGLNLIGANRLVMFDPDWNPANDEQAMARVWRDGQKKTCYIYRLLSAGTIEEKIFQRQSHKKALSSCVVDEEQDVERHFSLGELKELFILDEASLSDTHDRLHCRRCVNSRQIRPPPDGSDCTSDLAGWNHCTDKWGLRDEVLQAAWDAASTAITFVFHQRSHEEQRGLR

[8] = molecular target: DNA repair protein RAD52 homolog (Homo sapiens, UniProt P43351); format: functional, biochemical
Aminopeptidase N = molecular target: T3, Aminopeptidase N (Plasmodium falciparum FcB1/Columbia, UniProt O96935); test: malaria alanyl aminopeptidase activity blockers – biochemical, fluorogenic H-Leu-NHMec substrate, 1536-well (AID 1445); set-up: species or system Plasmodium falciparum 3D7, 3D7
T3 sequence (O96935 whole entry): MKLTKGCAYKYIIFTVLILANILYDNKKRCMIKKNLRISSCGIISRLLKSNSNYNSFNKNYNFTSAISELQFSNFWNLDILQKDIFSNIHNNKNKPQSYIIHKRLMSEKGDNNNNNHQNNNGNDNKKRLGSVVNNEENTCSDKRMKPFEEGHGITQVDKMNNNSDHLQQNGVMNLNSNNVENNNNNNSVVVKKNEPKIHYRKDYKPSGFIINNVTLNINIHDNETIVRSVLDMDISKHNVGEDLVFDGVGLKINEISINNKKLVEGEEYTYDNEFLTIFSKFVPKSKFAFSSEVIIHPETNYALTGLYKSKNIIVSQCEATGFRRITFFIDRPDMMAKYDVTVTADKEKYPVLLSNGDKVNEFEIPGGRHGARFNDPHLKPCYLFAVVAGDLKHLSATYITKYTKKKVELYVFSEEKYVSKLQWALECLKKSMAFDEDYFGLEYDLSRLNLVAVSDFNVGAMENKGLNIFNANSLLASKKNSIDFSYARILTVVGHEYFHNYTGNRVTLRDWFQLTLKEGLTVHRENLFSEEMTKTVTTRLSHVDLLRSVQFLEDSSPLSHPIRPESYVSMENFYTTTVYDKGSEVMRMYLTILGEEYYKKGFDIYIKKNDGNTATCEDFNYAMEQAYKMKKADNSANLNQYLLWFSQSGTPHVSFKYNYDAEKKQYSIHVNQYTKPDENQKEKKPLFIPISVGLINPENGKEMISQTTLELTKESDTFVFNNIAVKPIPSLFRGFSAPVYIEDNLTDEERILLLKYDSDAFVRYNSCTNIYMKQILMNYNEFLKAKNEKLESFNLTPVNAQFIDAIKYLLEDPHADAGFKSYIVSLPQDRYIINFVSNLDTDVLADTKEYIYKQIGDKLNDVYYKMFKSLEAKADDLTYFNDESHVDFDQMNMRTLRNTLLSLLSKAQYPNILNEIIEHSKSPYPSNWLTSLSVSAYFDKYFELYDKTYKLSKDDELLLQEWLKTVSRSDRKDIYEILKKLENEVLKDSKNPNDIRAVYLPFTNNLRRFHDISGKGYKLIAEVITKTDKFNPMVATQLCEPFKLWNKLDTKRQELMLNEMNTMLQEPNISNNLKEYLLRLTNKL

[9] = molecular target: Luciferin 4-monooxygenase (Photinus pyralis, UniProt P08659); test: inhibition of purified Photinus pyralis luciferase – biochemical, luminescence, dose response (AID 1891)
[10] = Luminescence Cell-Based Dose Confirmation HTS to Identify Inhibitors of Platelet Dense Granule Release. [Related pubchem assays: 1663 (Primary HTS), 1678 (Summary of Project)]; format: functional
[11] = viability loss in HeLa cells – cytotoxicity control for MgcRacGAP inhibitor project, dose response (AID 624300); format: functional
[12] = molecular target: T4, Rac GTPase-activating protein 1 (Homo sapiens, UniProt Q9H0H5); test: blockers of MgcRacGAP-driven Rac1 GTP hydrolysis – biochemical, ADP Hunter fluorescence, primary and confirmatory, confirmation (AID 624330); format: functional
T4 sequence (Q9H0H5 whole entry): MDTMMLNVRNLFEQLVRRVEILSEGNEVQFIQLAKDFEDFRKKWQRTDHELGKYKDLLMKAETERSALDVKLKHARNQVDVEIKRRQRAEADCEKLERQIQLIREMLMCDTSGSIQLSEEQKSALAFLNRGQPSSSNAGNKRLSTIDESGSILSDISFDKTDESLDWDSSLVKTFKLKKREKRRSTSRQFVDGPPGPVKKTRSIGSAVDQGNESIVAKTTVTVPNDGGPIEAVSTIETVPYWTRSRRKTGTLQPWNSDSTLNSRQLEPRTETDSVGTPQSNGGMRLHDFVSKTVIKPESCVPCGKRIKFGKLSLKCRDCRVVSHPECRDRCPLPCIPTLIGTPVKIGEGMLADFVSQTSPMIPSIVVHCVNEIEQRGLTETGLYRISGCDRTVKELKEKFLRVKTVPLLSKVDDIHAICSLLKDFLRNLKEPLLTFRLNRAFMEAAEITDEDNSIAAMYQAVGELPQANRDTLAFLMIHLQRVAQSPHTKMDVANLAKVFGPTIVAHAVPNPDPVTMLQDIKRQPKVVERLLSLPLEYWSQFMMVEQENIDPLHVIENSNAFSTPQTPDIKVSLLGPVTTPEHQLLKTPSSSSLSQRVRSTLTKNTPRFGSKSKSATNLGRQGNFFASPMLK

[13] = A549 cell cytotoxicity, dose response, cytotoxicity control, plate reader, cherry-pick, antagonist series (AID 743412); format: functional, cell-based
[14] = blockers of bursicon-stimulated LGR2 cAMP reporter – cell-based, HEK293, CRE-luciferase reporter, cherry pick, set 2, dose response (AID 743343); format: functional;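 note: transfected cells were stimulated with diluted bursicon conditioned medium after compound addition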
[15] = blockade of melanocortin 4 receptor signaling – cell-based, plate reader, cherry pick, counter-screen for LGR2 antagonist project, dose response (AID 743444); format: functional;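 note: transfected HEK 293 cells stimulated with alpha-MSH peptide; potency of inhibitors of the alpha-MSH evoked signal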
Albumin = Albumin (Bos taurus, UniProt P02769); test: Counterscreen for inhibitors of T-cell receptor (TCR)-CD3 interaction: Fluorescence-based biochemical high throughput dose response assay to identify inhibitors of T-cell receptor (TCR)-CD3 interaction using a TAMRA-labeled BSA probe.; format: functional
[16] = Inhibition of T. cruzi Tulahuen strain amastigotes in L-6 muscle cells Measured in Cell-Based and Microorganism Combination System Using Plate Reader - 2138-03_Inhibitor_Dose_CherryPick_Activity.; format: functional; settings: Rattus norvegicus, L6
[17] = L6 myocyte viability loss – cell-based, plate reader, cherry-pick, cytotoxicity control, dose response (AID 651896); format: functional
[18] = Inhibition of Plasmodium falciparum NF54 Measured in Cell-Based System Using Plate Reader - 2138-11_Inhibitor_Dose_CherryPick_Activity.; format: functional
[19] = antileishmanial activity on axenic amastigotes – plate reader, cherry pick, dose response (AID 651891); format: functional, cell-based; settings: Leishmania donovani
[20] = intracellular Trypanosoma cruzi inhibitors in host cells – cell-based, plate reader, cherry-pick samples, set 3, dose response (AID 651818); format: functional;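 note: compounds incubated with infected cells for about four days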
[21] = African trypanosome bloodstream form growth inhibition – STIB900 strain, plate reader, cherry pick, dose response (AID 651893); format: functional, cell-based, Trypanosoma brucei rhodesiense; settings: Trypanosoma brucei

Sequence of ADP-ribosylation factor GTPase-activating protein 1 (Q62848 whole entry, the tested form may be a part): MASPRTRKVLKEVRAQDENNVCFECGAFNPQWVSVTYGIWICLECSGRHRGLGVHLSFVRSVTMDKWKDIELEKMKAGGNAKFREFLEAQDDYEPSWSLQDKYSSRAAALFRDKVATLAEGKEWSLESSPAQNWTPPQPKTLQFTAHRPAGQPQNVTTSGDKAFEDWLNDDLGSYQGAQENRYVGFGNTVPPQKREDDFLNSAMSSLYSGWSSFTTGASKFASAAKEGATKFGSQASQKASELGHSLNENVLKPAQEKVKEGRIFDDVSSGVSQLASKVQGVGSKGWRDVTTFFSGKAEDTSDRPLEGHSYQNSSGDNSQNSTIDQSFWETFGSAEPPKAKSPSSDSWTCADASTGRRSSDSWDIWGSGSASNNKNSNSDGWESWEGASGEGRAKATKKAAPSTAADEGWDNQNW
Sequence of DNA repair protein RAD52 homolog (P43351 whole entry): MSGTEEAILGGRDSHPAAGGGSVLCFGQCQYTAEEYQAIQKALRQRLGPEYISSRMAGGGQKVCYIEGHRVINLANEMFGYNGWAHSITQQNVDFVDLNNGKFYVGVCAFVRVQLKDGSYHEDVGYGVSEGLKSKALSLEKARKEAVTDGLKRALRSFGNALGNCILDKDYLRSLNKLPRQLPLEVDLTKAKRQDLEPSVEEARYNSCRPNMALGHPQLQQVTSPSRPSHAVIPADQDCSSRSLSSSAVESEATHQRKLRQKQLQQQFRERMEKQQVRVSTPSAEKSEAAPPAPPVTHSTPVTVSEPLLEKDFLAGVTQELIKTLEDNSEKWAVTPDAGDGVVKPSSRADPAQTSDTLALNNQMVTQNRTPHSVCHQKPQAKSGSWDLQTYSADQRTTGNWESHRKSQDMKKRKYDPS
Sequence of Arf-GAP with SH3 domain, ANK repeat and PH domain-containing protein 1 (Q9ULH1 whole entry, the tested form may be a part): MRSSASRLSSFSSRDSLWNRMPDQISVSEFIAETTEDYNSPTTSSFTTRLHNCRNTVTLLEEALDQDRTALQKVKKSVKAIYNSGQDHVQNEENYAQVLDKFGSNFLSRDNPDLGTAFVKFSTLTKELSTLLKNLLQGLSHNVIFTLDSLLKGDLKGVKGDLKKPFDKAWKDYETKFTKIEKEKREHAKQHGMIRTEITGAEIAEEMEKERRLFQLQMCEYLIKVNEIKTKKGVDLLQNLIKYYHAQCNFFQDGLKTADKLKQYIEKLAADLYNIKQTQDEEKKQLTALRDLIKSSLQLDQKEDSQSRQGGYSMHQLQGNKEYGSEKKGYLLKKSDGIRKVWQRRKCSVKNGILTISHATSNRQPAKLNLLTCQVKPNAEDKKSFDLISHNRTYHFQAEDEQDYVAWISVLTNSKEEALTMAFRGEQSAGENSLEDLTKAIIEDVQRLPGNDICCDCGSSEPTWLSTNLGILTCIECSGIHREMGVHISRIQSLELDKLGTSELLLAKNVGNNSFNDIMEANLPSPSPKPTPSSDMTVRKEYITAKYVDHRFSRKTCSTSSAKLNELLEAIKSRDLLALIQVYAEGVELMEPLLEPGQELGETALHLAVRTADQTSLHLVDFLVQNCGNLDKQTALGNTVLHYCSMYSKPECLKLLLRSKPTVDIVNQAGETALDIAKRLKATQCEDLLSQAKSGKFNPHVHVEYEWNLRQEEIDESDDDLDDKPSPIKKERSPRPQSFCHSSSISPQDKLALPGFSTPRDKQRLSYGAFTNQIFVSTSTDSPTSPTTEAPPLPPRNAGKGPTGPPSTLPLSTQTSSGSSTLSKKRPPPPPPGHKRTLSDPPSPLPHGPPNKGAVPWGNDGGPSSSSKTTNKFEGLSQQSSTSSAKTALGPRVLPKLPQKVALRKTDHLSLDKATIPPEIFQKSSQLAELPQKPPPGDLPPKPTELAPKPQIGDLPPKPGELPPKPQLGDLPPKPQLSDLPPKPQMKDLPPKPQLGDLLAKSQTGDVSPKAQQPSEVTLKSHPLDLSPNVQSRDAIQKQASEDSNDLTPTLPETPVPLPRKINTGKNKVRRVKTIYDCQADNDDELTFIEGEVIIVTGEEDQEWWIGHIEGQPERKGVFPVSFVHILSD
Sequence of Fructose-bisphosphate aldolase (P9WQA3 whole entry): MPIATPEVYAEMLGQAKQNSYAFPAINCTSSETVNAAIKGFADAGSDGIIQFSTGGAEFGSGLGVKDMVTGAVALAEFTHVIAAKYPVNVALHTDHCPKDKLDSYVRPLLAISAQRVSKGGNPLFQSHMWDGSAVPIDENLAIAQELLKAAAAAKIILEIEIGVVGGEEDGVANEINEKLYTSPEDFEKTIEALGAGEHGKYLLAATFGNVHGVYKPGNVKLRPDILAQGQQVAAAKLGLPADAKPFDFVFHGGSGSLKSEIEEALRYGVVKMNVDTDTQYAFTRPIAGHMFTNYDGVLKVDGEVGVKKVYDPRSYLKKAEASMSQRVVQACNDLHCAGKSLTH
Sequence of Albumin (P02769 whole entry): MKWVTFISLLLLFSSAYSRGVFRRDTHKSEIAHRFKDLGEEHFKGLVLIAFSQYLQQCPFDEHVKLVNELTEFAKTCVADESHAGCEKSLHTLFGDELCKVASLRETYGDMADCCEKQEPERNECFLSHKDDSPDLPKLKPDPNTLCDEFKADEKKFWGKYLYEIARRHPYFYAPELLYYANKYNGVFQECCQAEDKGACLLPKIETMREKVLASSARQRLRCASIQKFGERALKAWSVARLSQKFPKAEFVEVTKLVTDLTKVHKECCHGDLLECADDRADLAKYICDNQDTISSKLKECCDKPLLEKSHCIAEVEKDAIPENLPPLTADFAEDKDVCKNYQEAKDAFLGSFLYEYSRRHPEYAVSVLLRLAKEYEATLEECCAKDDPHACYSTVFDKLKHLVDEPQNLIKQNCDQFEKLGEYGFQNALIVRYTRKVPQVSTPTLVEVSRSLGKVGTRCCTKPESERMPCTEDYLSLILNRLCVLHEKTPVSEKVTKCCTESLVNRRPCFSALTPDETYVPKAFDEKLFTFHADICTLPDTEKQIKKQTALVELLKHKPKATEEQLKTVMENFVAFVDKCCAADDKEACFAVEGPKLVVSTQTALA
Sequence of Luciferin 4-monooxygenase (P08659 whole entry): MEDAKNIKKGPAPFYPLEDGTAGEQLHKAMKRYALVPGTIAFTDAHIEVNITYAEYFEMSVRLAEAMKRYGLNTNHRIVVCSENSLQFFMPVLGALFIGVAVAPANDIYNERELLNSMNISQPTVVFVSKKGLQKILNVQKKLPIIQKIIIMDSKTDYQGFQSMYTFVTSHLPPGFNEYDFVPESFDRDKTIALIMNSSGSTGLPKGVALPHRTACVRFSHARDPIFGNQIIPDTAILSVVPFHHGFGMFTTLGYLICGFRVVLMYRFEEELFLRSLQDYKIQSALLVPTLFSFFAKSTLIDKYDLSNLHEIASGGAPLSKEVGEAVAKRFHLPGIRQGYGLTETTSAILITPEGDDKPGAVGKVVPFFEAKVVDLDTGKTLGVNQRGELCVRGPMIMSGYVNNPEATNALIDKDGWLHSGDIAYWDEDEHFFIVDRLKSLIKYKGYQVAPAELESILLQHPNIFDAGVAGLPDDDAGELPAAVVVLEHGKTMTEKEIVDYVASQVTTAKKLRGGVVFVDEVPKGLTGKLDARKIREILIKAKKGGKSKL

Cc1coc2c1c(C)cc1oc(=O)c(CC(=O)NCCCN3CCCC3=O)c(C)c12
IC50 [1]: 1.43 µM (active)

Cc1ccc2nc(SCC(=O)N3CCC(C)CC3)nc(=O)n2c1
IC50 [2]: 26.2 µM (inactive) | IC50 [3]: 22.9 µM (inactive)

COc1cccc(NC(=O)Cn2nnc(C(=O)Nc3cc(Cl)ccc3OC)c2N)c1
IC50 [2]: 5.04 µM (active) | IC50 [3]: 8.8 µM (active)

COc1ccc(Nc2nc(NCC3CCCO3)c3ccccc3n2)c(OC)c1 (centres undefined)
EC50 [4]: 0.465 µM (active) | EC50 [5]: > 30 µM (not active) | EC50 [6]: 0.376 µM (active) | AC50 [7]: 57.9 µM (active) | AC50 [8]: 13.4 µM (active)

Nc1ccc(-c2nc3ccc(N)cc3s2)cc1
IC50 (Aminopeptidase N): 21.3 µM (active) | EC50 [9]: 8.6 µM (active) | EC50 [10]: 17.5 µM (active) | CC50 [11]: 100 µM (active) | IC50 [12]: 70.2 µM (active) | AC50 [13]: > 52 µM (inactive) | AC50 [14]: 7.8 µM (active) | AC50 [15]: 7.01 µM (active)

Cc1ccc(N2C(=O)/C(=C\NNC(=O)C3COc4ccccc4O3)c3ccccc3C2=O)cc1 (centres undefined)
IC50 (Albumin): > 94.1 µM (inactive)

COc1ccc(S(=O)(=O)N(CCCN2CCCC2=O)Cc2cc3c(C)cc(C)cc3nc2O)cc1
IC50 [1]: > 3.33 µM (active)

Cc1cc(C)c(-c2cc(NC(=O)COC(=O)c3ccc(NC(=O)CC#N)cc3)n(-c3ccccc3)n2)cc1C
IC50 (Albumin): > 94.1 µM (inactive)

C[C@H](CO)N1C[C@H](C)[C@@H](CN(C)Cc2ccc(C(F)(F)F)cc2)Oc2c(NC(=O)c3ccncc3)cccc2C1=O
IC50 [16]: 3.79 µM (inactive) | IC50 [17]: 36.1 µM (inactive) | IC50 [18]: 3.79 µM (inactive) | IC50 [19]: 41.4 µM (inactive) | AC50 [20]: 0.105 µM (active) | IC50 [21]: 7.22 µM (inactive)

CCN1CCN(Cc2ccc(C(=O)Nc3ccc(C)c(NCc4cnc(NC(=O)OC)cn4)c3)cc2C(F)(F)F)CC1
AC50 [8]: 15.1 µM (active)

C[C@H]1CN([C@@H](C)CO)C(=O)c2cccc(NC(=O)c3ccncc3)c2O[C@H]1CN(C)Cc1ccc(-c2ccccc2)cc1
IC50 [16]: 3.21 µM (inactive) | IC50 [17]: 47.5 µM (inactive) | IC50 [18]: 3.21 µM (inactive) | IC50 [19]: > 100 µM (inactive) | AC50 [20]: 0.08 µM (active) | IC50 [21]: 11.2 µM (inactive)
